This is an account of results in patent US20240002326A1, “COMPOUNDS AND USE THEREOF IN METHODS OF TREATMENT” (The University of Queensland, priority 2016, published 2024).

Broadly, the CC50 is the concentration at which the toxic effect on the cells reaches its halfway point. In general, IC50 refers to the point on the concentration scale where inhibition reaches its midpoint.

One data set has as its system HEK293. Nature of the data set: Cytotoxicity assay (Alamar blue), HEK293. The class given is cell-based. The note with it: HEK293, 24 h. Summed up: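 COS-7 cells in DMEM with 10% FBS; HepG2 and HEK293 in DMEM with 1% FBS. After 24 h plating, serial compound dilutions (0.5% DMSO final) added for 24 h at 37° C. Viability from Alamar blue 5 μM, fluorescence 560/590 nm read after 2 h.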
A general note: Resazurin is reduced to fluorescent resorufin, in cell work by metabolically active cells.

The next data set relates to HepG2. Nature of the data set: Cytotoxicity assay (Alamar blue), HepG2. The class given is cell-based. The note with it: HepG2, 24 h.
For a further data set, the target named is SOX18-MEF2C interaction (Homo sapiens (Human), UniProt P35713). Nature of the data set: ALPHAScreen SOX18-MEF2C protein-protein interaction. The class given is binding. The note with it: read-out: SOX18-MEF2C interaction disruption IC50. An excerpt:
Proteins were genetically encoded with enhanced GFP (GFP), mCherry and cMyc (myc) tags, and cloned into cell free expression Gateway destination vectors: N-terminal GFP tagged (pCellFree_G03), N-terminal Cherry-cMyc (pCellFree_G07) and C-terminal Cherry-cMyc tagged (pCellFree_G08) (Gagoski et al., 2015). Human RBPJ (BC020780) and MEF2C (BC026341) Open Reading Frames (ORFs) were sourced from the Human ORFeome collection, version 1.1 and 5.1, and the Human Orfeome collaboration OCAA collection (Open Biosystems), as previously described (Sierecki et al., 2013) and cloned at the ARVEC facility, UQ Diamantina Institute. […]
ALPHAScreen was performed as previously described (Sierecki et al., 2014, Sierecki et al., 2013). […] Percentage of interaction was calculated as: (I_cpd/I_DMSO)×100 from 3 independent experiments.
ALPHAScreen was performed as previously described (Sierecki et al., 2014, Sierecki et al., 2013), using the cMyc detection kit and Proxiplate-384 Plus plates (PerkinElmer). […] The ALPHAScreen signal was measured on an Envision Plate Reader (PerkinElmer), using manufacturer's recommended settings (λexc=680/30 nm for 0.18 s, λem=570/100 nm after 37 ms). […]
I is the highest signal level (top of the hook effect curve) and Ineg is the lowest (background) signal level. […] Percentage of interaction was calculated as: […]
For orientation: Alpha assays give light when donor and acceptor beads are brought close together.

Data set [1] is described as follows: Critical micelle concentration (CMC) assay. The note with it: threshold concentration of micelle formation in 200 mM NaCl or FP buffer. The class given is physicochemical. The procedure: Critical micelle concentration was determined based on the incorporation of fluorescent 1,6-diphenyl-1,3,5-hexatriene (DPH) into micelles (Chattopadhyay and London, 1984). Small molecules and positive controls (neutral detergent Triton X100 and anionic detergent SDS) were cascade diluted in low binding 96-well plates from 1000 μM to 0.1 μM. Dilutions were performed in 200 mM NaCl or FP buffer. DPH was supplemented at 5 μM into black 384-well plates. Fluoresence intensity (λexc=360 nm, λem=430 nm) was measured following a 30-min incubation at room temperature, to graphically estimate CMC transition.

The next data set addresses ovine COX1 (Ovis aries (Sheep), UniProt P05979). Nature of the data set: COX1 enzymatic assay. The class given is biochemical. The note with it: up to a concentration of 200 μM. The procedure: COX inhibition activity was measured using COX1 and COX2 inhibitor screening assay kits from Cayman Chemical Company (Ref #701090 and 701080). All compounds were tested in quadruplicate at a single 200 μM concentration in 2% v/v final DMSO. Compounds were preincubated with ovine COX1 or human COX2 at 37° C. for 10 min before incubation with COX substrate arachidonic acid for another 3 min. Reactions were stopped by addition of concentrated hydrochloric acid. Prostanoid standard curve was prepared and enzyme immunoassay performed as per manufacturer's description. […] Prostanoid standards values were plotted as logit (B/B0) versus log concentrations and fitted with linear regression using GraphPad Prism version 6.0. Standard curve linear fit was used to calculate each samples concentrations.

SOX18-MEF2C interaction, sequence (P35713 whole entry): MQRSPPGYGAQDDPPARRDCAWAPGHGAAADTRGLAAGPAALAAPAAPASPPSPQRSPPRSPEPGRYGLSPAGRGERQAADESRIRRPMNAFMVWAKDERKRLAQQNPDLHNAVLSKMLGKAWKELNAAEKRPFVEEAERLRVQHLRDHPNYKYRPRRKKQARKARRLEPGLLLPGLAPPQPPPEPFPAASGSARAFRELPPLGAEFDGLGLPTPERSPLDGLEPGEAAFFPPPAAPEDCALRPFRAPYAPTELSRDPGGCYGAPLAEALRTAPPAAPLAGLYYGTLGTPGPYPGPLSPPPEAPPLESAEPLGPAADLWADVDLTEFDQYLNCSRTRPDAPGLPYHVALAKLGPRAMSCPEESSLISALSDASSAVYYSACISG
ovine COX1, sequence (P05979 25-600): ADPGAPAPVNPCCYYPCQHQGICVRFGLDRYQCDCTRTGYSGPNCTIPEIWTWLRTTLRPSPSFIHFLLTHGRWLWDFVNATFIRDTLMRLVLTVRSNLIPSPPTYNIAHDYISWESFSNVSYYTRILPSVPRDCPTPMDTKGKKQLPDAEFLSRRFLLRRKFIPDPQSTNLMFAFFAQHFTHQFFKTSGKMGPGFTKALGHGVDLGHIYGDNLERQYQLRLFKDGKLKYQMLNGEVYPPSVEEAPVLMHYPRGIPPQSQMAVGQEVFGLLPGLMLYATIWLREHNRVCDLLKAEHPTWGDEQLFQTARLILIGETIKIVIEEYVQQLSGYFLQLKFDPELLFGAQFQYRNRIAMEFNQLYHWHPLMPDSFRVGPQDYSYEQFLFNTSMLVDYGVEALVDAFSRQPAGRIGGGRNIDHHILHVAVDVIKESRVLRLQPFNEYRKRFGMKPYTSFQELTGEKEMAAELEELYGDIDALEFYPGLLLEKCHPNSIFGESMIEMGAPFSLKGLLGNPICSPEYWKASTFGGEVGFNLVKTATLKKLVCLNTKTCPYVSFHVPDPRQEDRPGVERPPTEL

On to `CCN(CC)C(=O)c1c(O)cc(O)cc1CCc1ccc2ccccc2c1` [Sm26, N,N,diethyl-2,4-hydroxy-6-(2-(naphthalen-2-yl)ethyl)benzamide], for which the results for the cytotoxic concentration (CC50) in the data set with HEK293 and in the data set with HepG2 were 23.5 µM and 16.8 µM, respectively.
For the compound `O=C(O)c1ccccc1Nc1cccc(C(F)(F)F)c1` [Flufenamic acid, reference compound], on SOX18-MEF2C interaction, the IC50 was found to be 29.1 µM.
For `O=C(O)c1c(O)cccc1COCCc1ccccc1` [Sm5], in data set [1], the CMC is >1000 µM. Besides, the COX-1 inhibitory activity entry at ovine COX1 was “None of the SOX18 inhibitor display any COX-1 or COX-2 inhibitory activity”.
